Measured values from patent US20180057505A1, “BICYCLIC HETEROARYL COMPOUNDS USEFUL AS INHIBITORS OF THE PAR-2 SIGNALING PATHWAY” (VERTEX PHARMACEUTICALS INCORPORATED, priority 2015, published 2018).

What was measured:
Format in all cases: cell-based
PAR2 (HT-29 cells) [1] = target: T1, PAR2 (HT-29 cells) (Homo sapiens, UniProt P55085); test: Ca FLIPR TETRA assay, ANTAGONIST mode, activator 8 μM SLIGKV; settings: HT-29 cells; activator 8 μM SLIGKV; Method A: maximal concentration of antagonist 0.1, 1 or 2 μM
T1 construct: host or cells: HT-29
T1 sequence (P55085 26-397): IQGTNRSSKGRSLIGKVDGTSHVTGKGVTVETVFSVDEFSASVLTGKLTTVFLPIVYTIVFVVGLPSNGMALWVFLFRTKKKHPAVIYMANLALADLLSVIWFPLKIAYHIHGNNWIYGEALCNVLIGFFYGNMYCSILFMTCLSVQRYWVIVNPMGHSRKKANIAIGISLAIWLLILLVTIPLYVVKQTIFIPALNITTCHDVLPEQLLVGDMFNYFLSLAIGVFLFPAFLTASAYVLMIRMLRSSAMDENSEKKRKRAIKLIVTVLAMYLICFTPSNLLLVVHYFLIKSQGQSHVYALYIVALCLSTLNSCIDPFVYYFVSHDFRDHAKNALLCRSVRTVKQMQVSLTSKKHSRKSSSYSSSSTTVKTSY
Outline: (§1)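 Ca2+ flux by FLIPR Tetra in HT-29 cells after 30 min r.t. compound preincubation, followed by stimulation with SLIGKV 8 μM, thrombin 1 U/mL, trypsin 3.1 U/mL or UTP 0.6 μM (final). Cells were dye-loaded with calcium 5 beforehand; compound-only responses were also read.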

PAR2 (HT-29 cells) [2] = target: T1, PAR2 (HT-29 cells); test: Ca FLIPR TETRA assay, ANTAGONIST mode, activator 3.1 U/mL trypsin; settings: HT-29 cells; activator 3.1 U/mL trypsin; Method A: maximal concentration of antagonist 0.1, 1 or 2 μM
Outline: as §1

[3] = system: Thrombin-stimulated Ca2+ response in HT-29 cells; test: Ca FLIPR TETRA assay, ANTAGONIST mode, activator 1 U/mL Thrombin; settings: HT-29 cells, activator 1 U/mL Thrombin
Outline: as §1

[4] = system: UTP-stimulated Ca2+ response in HT-29 cells; test: Ca FLIPR TETRA assay, ANTAGONIST mode, activator 0.6 μM UTP; settings: HT-29 cells, activator 0.6 μM UTP
Outline: as §1

Row | SMILES | IC50 (PAR2 (HT-29 cells) [1]) | IC50 (PAR2 (HT-29 cells) [2]) | IC50 ([3]; Homo sapiens) | IC50 ([4]; Homo sapiens) | IC50 [3] | IC50 [4]
1 | CN1CCN(C(=O)c2cc3nc(-c4ccc(Cl)c(F)c4)cc(C(C)(C)C)c3o2)C(C)(C)CC1=O [Example I-522] | 2.5 nM | 2.6 nM | > 2000 nM | > 2000 nM | – | –
2 | Cc1cc(C(=O)N2CCN(C(=O)c3cc4nc(C5CCC(C)(C)CC5)cc(C(C)(C)C)c4o3)C(C)(C)C2)[nH]n1 [Example I-523] | 2 nM | 1.9 nM | > 2000 nM | > 2000 nM | – | –
3 | Cc1ncc(N2CCN(C(=O)c3cc4nc(-c5ccc(Cl)c(F)c5)cc(C(C)(C)C)c4o3)C(C)(C)C2)nc1C(=O)O [Example I-524] | 2 nM | 2.6 nM | > 2000 nM | > 2000 nM | – | –
4 | Cc1ncc(N2CCN(C(=O)c3cc4nc(C5CCC(C)(C)CC5)cc(C(C)(C)C)c4o3)C(C)(C)C2)nc1C(=O)O [Example I-525] | 0.7 nM | 1.4 nM | – | – | 1600 nM | 1650 nM
5 | CN1CC(C)(C)N(C(=O)c2cc3nc(-c4ccc(Cl)c(F)c4)cc(C(C)(C)C)c3o2)CCC1=O [Example I-526] | 240 nM | 147 nM | > 2000 nM | > 2000 nM | – | –
6 | CC(C)(C)c1cc(-c2ccc(Cl)c(F)c2)nc2cc(C(=O)N3CCN(C(=O)NS(C)(=O)=O)CC3(C)C)oc12 [Example I-527] | 31 nM | 45 nM | > 2000 nM | > 2000 nM | – | –
7 | Cc1cc(C(=O)O)c(N2CCN(C(=O)c3cc4nc(-c5ccc(Cl)c(F)c5)cc(C(C)(C)C)c4o3)C(C)(C)C2)nn1 [Example I-528] | 270 nM | 250 nM | > 2000 nM | > 2000 nM | – | –
8 | CC(C)(C)c1cc(-c2ccc(Cl)c(F)c2)nc2cc(C(=O)N3CCN(c4ccc(-c5nnn[nH]5)cn4)CC3(C)C)oc12 [Example I-529] | 1 nM | 1.2 nM | > 2000 nM | > 2000 nM | – | –
9 | Cn1cnnc1N1CCN(C(=O)c2cc3nc(C4CCC(C)(C)CC4)cc(C(C)(C)C)c3o2)C(C)(C)C1 [Example I-530] | 6.8 nM | 5 nM | > 2000 nM | > 2000 nM | – | –
10 | CC(C)(C)c1cc(-c2ccc(Cl)cc2)nc2cc(C(=O)N3CCN(c4ccc(-c5nnn[nH]5)cn4)CC3(C)C)oc12 [Example I-531] | 1.5 nM | 2.8 nM | > 2000 nM | > 2000 nM | – | –
11 | Cc1ccc(N2CCN(C(=O)c3cc4nc(-c5ccc(Cl)c(F)c5)cc(C(C)(C)C)c4o3)C(C)(C)C2)nc1-c1nnn[nH]1 [Example I-532] | 0.3 nM | 0.3 nM | > 2000 nM | > 2000 nM | – | –
12 | Cc1ccc(N2CCN(C(=O)c3cc4nc(C5CCC(C)(C)CC5)cc(C(C)(C)C)c4o3)C(C)(C)C2)nc1-c1nnn[nH]1 [Example I-533] | 0.7 nM | 1.7 nM | > 2000 nM | > 2000 nM | – | –
13 | COc1cc(N2CCN(C(=O)c3cc4nc(-c5ccc(Cl)c(F)c5)cc(C(C)(C)C)c4o3)C(C)(C)C2)ncc1C(=O)O [Example I-534] | 0.2 nM | 0.1 nM | > 2000 nM | > 2000 nM | – | –
14 | COc1nc(N2CCN(C(=O)c3cc4nc(C5CCC(C)(C)CC5)cc(C(C)(C)C)c4o3)C(C)(C)C2)ccc1C(=O)O [Example I-535] | 2.1 nM | 1.2 nM | – | – | > 2000 nM | > 2000 nM
15 | CC(C)(C)c1cc(-c2ccc(Cl)cc2)nc2cc(C(=O)N3CCN(C(=O)[C@@H]4CC[C@H](C(=O)O)C4)CC3(C)C)oc12 [Example I-536] | 2.3 nM | 2.2 nM | > 2000 nM | > 2000 nM | – | –
16 | Cc1ccc(N2CCN(C(=O)c3cc4nc(-c5ccc(Cl)cc5)cc(C(C)(C)C)c4o3)C(C)(C)C2)nc1-c1nnn[nH]1 [Example I-537] | 0.3 nM | 0.4 nM | > 2000 nM | > 2000 nM | – | –
17 | Cc1c(C(=O)O)ccnc1N1CCN(C(=O)c2cc3nc(-c4ccc(Cl)c(F)c4)cc(C(C)(C)C)c3o2)C(C)(C)C1 [Example I-538] | 0.6 nM | 0.6 nM | 1500 nM | 1470 nM | – | –
18 | CC1(C)CCC(c2cc(C(C)(C)C)c3oc(C(=O)N4CCN(c5ccc(-c6nnn[nH]6)cn5)CC4(C)C)cc3n2)CC1 [Example I-539] | 1.5 nM | 2.2 nM | – | – | > 2000 nM | > 2000 nM
19 | CC(C)(C)c1cc(-c2ccc(Cl)c(F)c2)nc2cc(C(=O)N3CCN(c4cccc(C(=O)NS(C)(=O)=O)n4)CC3(C)C)oc12 [Example I-540] | 0.3 nM | 0.3 nM | > 2000 nM | > 2000 nM | – | –
20 | CC(C)(C)c1cc(-c2ccc(Cl)c(F)c2)nc2cc(C(=O)N3CCC(NC(=O)NS(C)(=O)=O)CC3(C)C)oc12 (stereo not shown) [Example I-541] | 1.5 nM | 1 nM | > 2000 nM | > 2000 nM | – | –
21 | CC(C)(C)c1cc(-c2ccc(Cl)c(F)c2)nc2cc(C(=O)N3CCN(S(=O)(=O)NC4CC4)CC3(C)C)oc12 [Example I-542] | 32 nM | 28 nM | > 2000 nM | > 2000 nM | – | –
22 | CC(C)(C)c1cc(-c2ccc(Cl)c(F)c2)nc2cc(C(=O)N3CCN(C(=O)[C@@H]4CC[C@@H]4C(=O)O)CC3(C)C)oc12 [Example I-543] | 0.6 nM | 0.8 nM | > 2000 nM | > 2000 nM | – | –
23 | Cc1ncc(N2CCN(C(=O)c3cc4nc(C5CCC(C)(C)CC5)cc(C(C)(C)C)c4o3)C(C)(C)C2)nc1C(=O)O [Example I-544] | 2.5 nM | 3.3 nM | > 2000 nM | > 2000 nM | – | –
24 | CC(C)(C)c1cc(-c2ccc(Cl)c(F)c2)nc2cc(C(=O)N3CCN(C(=O)[C@@H]4CCC[C@@H]4C(=O)O)CC3(C)C)oc12 [Example I-545] | 0.6 nM | 0.9 nM | > 2000 nM | > 2000 nM | – | –
25 | CC(C)(C)c1cc(-c2ccc(Cl)c(F)c2)nc2cc(C(=O)N3CCN(c4cccc(C(N)=O)n4)CC3(C)C)oc12 [Example I-546] | 5.4 nM | 7.4 nM | > 2000 nM | > 2000 nM | – | –
26 | CC(C)(C)c1cc(-c2ccc(Cl)c(F)c2)nc2cc(C(=O)N3CCN(C(=O)CC4(C(=O)O)CCCCC4)CC3(C)C)oc12 [Example I-547] | 0.09 nM | 0.1 nM | > 2000 nM | > 2000 nM | – | –
27 | CC(C)(C)c1cc(-c2ccc(Cl)c(F)c2)nc2cc(C(=O)N3CCC(N)CC3(C)C)oc12 (stereo not shown) [Example I-548] | 690 nM | 640 nM | > 2000 nM | 1800 nM | – | –
28 | CNC1CCN(C(=O)c2cc3nc(-c4ccc(Cl)c(F)c4)cc(C(C)(C)C)c3o2)C(C)(C)C1 (stereo not shown) [Example I-549] | 1100 nM | 1400 nM | > 2000 nM | > 2000 nM | – | –
